This is an account of results in ChEMBL document CHEMBL1152057, “A note of caution in the use of receptor binding assays to screen marine organisms: the action of halistanol trisulphate on adenosine receptors” (Bioorg Med Chem Lett, 1992).

Experiment [1] deals with T1, Adenosine receptor A1 (Rattus norvegicus, UniProt P25099).
T1 sequence (P25099 whole entry): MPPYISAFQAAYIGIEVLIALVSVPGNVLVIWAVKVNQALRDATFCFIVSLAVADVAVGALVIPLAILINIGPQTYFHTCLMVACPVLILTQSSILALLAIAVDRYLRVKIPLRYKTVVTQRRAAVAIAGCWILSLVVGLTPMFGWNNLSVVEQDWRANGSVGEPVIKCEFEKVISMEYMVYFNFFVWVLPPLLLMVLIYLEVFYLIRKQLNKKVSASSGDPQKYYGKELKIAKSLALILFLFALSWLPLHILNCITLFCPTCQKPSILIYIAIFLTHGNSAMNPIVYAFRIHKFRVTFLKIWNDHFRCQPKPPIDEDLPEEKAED
Nature of the experiment: Agonistic activity against adenosine A1 receptor. The class given is functional.

Experiment [2] concerns the target T2, Adenosine receptor A1 (Rattus norvegicus) (UniProt P25099).
T2 sequence (whole entry): T1 sequence (P25099 whole entry)
Nature of the experiment: Bmax value for adenosine A1 receptor binding at 145 uM.

For experiment [3], the target named is T1, Adenosine receptor A1. Briefly: Kd value for adenosine A1 receptor binding at 145 uM.
Experiment [4] addresses T1, Adenosine receptor A1. Nature of the experiment: Kd value for adenosine A1 receptor binding at 14.5 uM.
Experiment [5] deals with T2, Adenosine receptor A1 (Rattus norvegicus). Nature of the experiment: Bmax value for adenosine A1 receptor binding at 14.5 uM.

Consider `COc1cc(-c2oc3c(OC)cc(CCCO)cc3c2C=O)ccc1O`, for which the IC50 on Adenosine receptor A1 [1] worked out at 0.017 µM.

As to `CC(CCC(C)C(C)(C)C)C1CC[C@H]2[C@@H]3C[C@H](OS(=O)(=O)O)C4C[C@H](OS(=O)(=O)O)[C@@H](OS(=O)(=O)O)CC4(C)[C@H]3CCC12C` (stereo partly specified), the figures for the Bmax in experiment [2] and in experiment [5] were 319 fmol/mg and 346 fmol/mg, respectively. The compound also had an IC50 at Adenosine receptor A1 [1] of 120 µM. The Kd was 10.6 nM on Adenosine receptor A1 [3] and 1.39 nM at Adenosine receptor A1 [4].
